Assay: xn = mol fraction of the nth substance listed
Conditions: 92 kPa, Liquid; for mass density: Vibrating tube method

CC(C)(N)CO [2-amino-2-methylpropan-1-ol] + O
Conditions | mass density [kg/m3] | viscosity [mPa·s]
298.15 K, x1 = 0.0503 | 996.94 | 2.32
298.15 K, x1 = 0.0704 | 997.22 | 3.23
298.15 K, x1 = 0.1005 | 997.05 | 5.01
298.15 K, x1 = 0.2006 | 989.06 | 14.82
298.15 K, x1 = 0.2939 | 978.77 | 22.7
298.15 K, x1 = 0.4075 | 967.43 | 51.5
298.15 K, x1 = 0.4982 | 959.61 | 76.8
298.15 K, x1 = 0.5996 | 952.01 | 102.5
298.15 K, x1 = 0.7028 | 945.34 | 124.3
298.15 K, x1 = 0.8016 | 939.53 | 140.7
298.15 K, x1 = 0.9001 | 934.8 | 149.1
303.15 K, x1 = 0.0503 | 994.7 | 1.98
303.15 K, x1 = 0.0704 | 994.6 | 2.67
303.15 K, x1 = 0.1005 | 993.88 | 4.05
303.15 K, x1 = 0.2006 | 985.15 | 11.32
303.15 K, x1 = 0.2939 | 974.76 | 16.96
303.15 K, x1 = 0.4075 | 963.43 | 36.9
303.15 K, x1 = 0.4982 | 955.61 | 54.3
303.15 K, x1 = 0.5996 | 948 | 70.3
303.15 K, x1 = 0.7028 | 941.38 | 84
303.15 K, x1 = 0.8016 | 935.53 | 94
303.15 K, x1 = 0.9001 | 930.7 | 98.9
313.15 K, x1 = 0.0503 | 989.66 | 1.608
313.15 K, x1 = 0.0704 | 988.95 | 1.931
313.15 K, x1 = 0.1005 | 987.5 | 2.79
313.15 K, x1 = 0.2006 | 977.24 | 7
313.15 K, x1 = 0.2939 | 966.67 | 12.51
313.15 K, x1 = 0.4075 | 955.29 | 20.37
313.15 K, x1 = 0.4982 | 947.43 | 28.7
313.15 K, x1 = 0.5996 | 939.82 | 36.1
313.15 K, x1 = 0.7028 | 933.1 | 42.5
313.15 K, x1 = 0.8016 | 927.27 | 46.2
313.15 K, x1 = 0.9001 | 923.35 | 47.9
313.15 K, x1 = 1 | 919.65 | 47.8
323.15 K, x1 = 0.0503 | 984.18 | 1.244
323.15 K, x1 = 0.0704 | 982.83 | 1.466
323.15 K, x1 = 0.1005 | 980.6 | 2.03
323.15 K, x1 = 0.2006 | 969.17 | 4.66
323.15 K, x1 = 0.2939 | 958.38 | 7.85
323.15 K, x1 = 0.4075 | 946.98 | 12.17
323.15 K, x1 = 0.4982 | 939.08 | 16.26
323.15 K, x1 = 0.5996 | 931.58 | 20
323.15 K, x1 = 0.7028 | 924.7 | 22.7
323.15 K, x1 = 0.8016 | 918.85 | 24.6
323.15 K, x1 = 0.9001 | 914.78 | 25.3
323.15 K, x1 = 1 | 911.24 | 25.1
333.15 K, x1 = 0.0503 | 978.15 | 0.931
333.15 K, x1 = 0.0704 | 976.26 | 1.154
333.15 K, x1 = 0.1005 | 973.43 | 1.55
333.15 K, x1 = 0.2006 | 960.92 | 3.27
333.15 K, x1 = 0.2939 | 949.92 | 5.23
333.15 K, x1 = 0.4075 | 938.48 | 7.63
333.15 K, x1 = 0.4982 | 930.56 | 10
333.15 K, x1 = 0.5996 | 923.08 | 11.97
333.15 K, x1 = 0.7028 | 915.97 | 13.33
333.15 K, x1 = 0.8016 | 910.36 | 14.22
333.15 K, x1 = 0.9001 | 906.31 | 14.53
333.15 K, x1 = 1 | 902.87 | 14.4
343.15 K, x1 = 0.0503 | 971.66 | 0.826
343.15 K, x1 = 0.0704 | 969.29 | 0.933
343.15 K, x1 = 0.1005 | 965.83 | 1.21
343.15 K, x1 = 0.2006 | 952.44 | 2.4
343.15 K, x1 = 0.2939 | 941.28 | 3.67
343.15 K, x1 = 0.4075 | 930 | 4.94
343.15 K, x1 = 0.4982 | 921.85 | 6.43
343.15 K, x1 = 0.5996 | 914.39 | 7.5
343.15 K, x1 = 0.7028 | 907 | 8.23
343.15 K, x1 = 0.8016 | 901.65 | 8.88
343.15 K, x1 = 0.9001 | 897.77 | 8.98
343.15 K, x1 = 1 | 894.28 | 8.91

— the NIST ThermoML archive (doi:10.1021/je0201119)
